Results published in ChEMBL document CHEMBL5724914, “Linking interpersonal differences in gut microbiota composition and drug biotransformation activity” (2024).

Experiments:
[1] = The drug is tested on WLS-098 corresponding to human gut metagenome with ENA study accession number: PRJEB37062 and ENA sample accession number: ERS12561754 for biotransformation under anaerobic condition. The drug concentrations were measured over 9 timepoints collected between 0 and 24 hours of incubation by liquid-chromatography-coupled mass spectrometry (LC–MS); conditions: 2 µM
[2] = The drug is tested on WLS-310 corresponding to human gut metagenome with ENA study accession number: PRJEB37062 and ENA sample accession number: ERS12561785 for biotransformation under anaerobic condition. The drug concentrations were measured over 9 timepoints collected between 0 and 24 hours of incubation by liquid-chromatography-coupled mass spectrometry (LC–MS); conditions: 2 µM
[3] = The drug is tested on Z-020 corresponding to rabbit gut metagenome with ENA study accession number: PRJEB37062 and ENA sample accession number: ERS12561819 for biotransformation under anaerobic condition. The drug concentrations were measured over 9 timepoints collected between 0 and 24 hours of incubation by liquid-chromatography-coupled mass spectrometry (LC–MS); conditions: 2 µM
[4] = The drug is tested on WLS-006 corresponding to human gut metagenome with ENA study accession number: PRJEB37062 and ENA sample accession number: ERS12561741 for biotransformation under anaerobic condition. The drug concentrations were measured over 9 timepoints collected between 0 and 24 hours of incubation by liquid-chromatography-coupled mass spectrometry (LC–MS); conditions: 2 µM
[5] = human gut metagenome, 24 h, 2 µM
[6] = human gut metagenome, 24 h, 2 µM; remark: listed apart in the source
[7] = The drug is tested on WLS-038 corresponding to human gut metagenome with ENA study accession number: PRJEB37062 and ENA sample accession number: ERS12561745 for biotransformation under anaerobic condition. The drug concentrations were measured over 9 timepoints collected between 0 and 24 hours of incubation by liquid-chromatography-coupled mass spectrometry (LC–MS); conditions: 2 µM
[8] = human gut metagenome, 24 h, 2 µM; remark: listed apart in the source
[9] = human gut metagenome, 24 h, 2 µM; remark: listed apart in the source
[10] = The drug is tested on Z-022 corresponding to mouse gut metagenome with ENA study accession number: PRJEB37062 and ENA sample accession number: ERS12561821 for biotransformation under anaerobic condition. The drug concentrations were measured over 9 timepoints collected between 0 and 24 hours of incubation by liquid-chromatography-coupled mass spectrometry (LC–MS); conditions: 2 µM
[11] = The drug is tested on WLS-069 corresponding to human gut metagenome with ENA study accession number: PRJEB37062 and ENA sample accession number: ERS12561748 for biotransformation under anaerobic condition. The drug concentrations were measured over 9 timepoints collected between 0 and 24 hours of incubation by liquid-chromatography-coupled mass spectrometry (LC–MS); conditions: 2 µM
[12] = human gut metagenome, 24 h, 2 µM; remark: listed apart in the source
[13] = The drug is tested on WLS-039 corresponding to human gut metagenome with ENA study accession number: PRJEB37062 and ENA sample accession number: ERS12561746 for biotransformation under anaerobic condition. The drug concentrations were measured over 9 timepoints collected between 0 and 24 hours of incubation by liquid-chromatography-coupled mass spectrometry (LC–MS); conditions: 2 µM
[14] = The drug is tested on WLS-073 corresponding to human gut metagenome with ENA study accession number: PRJEB37062 and ENA sample accession number: ERS12561749 for biotransformation under anaerobic condition. The drug concentrations were measured over 9 timepoints collected between 0 and 24 hours of incubation by liquid-chromatography-coupled mass spectrometry (LC–MS); conditions: 2 µM
[15] = The drug is tested on Z-028 corresponding to mouse gut metagenome with ENA study accession number: PRJEB37062 and ENA sample accession number: ERS12561827 for biotransformation under anaerobic condition. The drug concentrations were measured over 9 timepoints collected between 0 and 24 hours of incubation by liquid-chromatography-coupled mass spectrometry (LC–MS); conditions: 2 µM
[16] = The drug is tested on Z-019 corresponding to rat gut metagenome with ENA study accession number: PRJEB37062 and ENA sample accession number: ERS12561818 for biotransformation under anaerobic condition. The drug concentrations were measured over 9 timepoints collected between 0 and 24 hours of incubation by liquid-chromatography-coupled mass spectrometry (LC–MS); conditions: 2 µM
[17] = human gut metagenome, 24 h, 2 µM; remark: listed apart in the source
[18] = The drug is tested on Z-018 corresponding to pig gut metagenome with ENA study accession number: PRJEB37062 and ENA sample accession number: ERS12561817 for biotransformation under anaerobic condition. The drug concentrations were measured over 9 timepoints collected between 0 and 24 hours of incubation by liquid-chromatography-coupled mass spectrometry (LC–MS); conditions: 2 µM
[19] = The drug is tested on Z-008 corresponding to metagenome with ENA study accession number: PRJEB37062 and ENA sample accession number: ERS12561808 for biotransformation under anaerobic condition. The drug concentrations were measured over 9 timepoints collected between 0 and 24 hours of incubation by liquid-chromatography-coupled mass spectrometry (LC–MS); conditions: 2 µM
[20] = The drug is tested on Z-029 corresponding to rat gut metagenome with ENA study accession number: PRJEB37062 and ENA sample accession number: ERS12561828 for biotransformation under anaerobic condition. The drug concentrations were measured over 9 timepoints collected between 0 and 24 hours of incubation by liquid-chromatography-coupled mass spectrometry (LC–MS); conditions: 2 µM
Further: call rule not given here.

| SMILES | Bacterial Biotransformation [1] | Bacterial Biotransformation [2] | Bacterial Biotransformation [3] | Bacterial Biotransformation [4] | Bacterial Biotransformation [5] | Bacterial Biotransformation [6] | Bacterial Biotransformation [7] | Bacterial Biotransformation [8] | Bacterial Biotransformation [9] | Bacterial Biotransformation [10] | Bacterial Biotransformation [11] | Bacterial Biotransformation [12] | Bacterial Biotransformation [13] | Bacterial Biotransformation [14] | Bacterial Biotransformation [15] | Bacterial Biotransformation [16] | Bacterial Biotransformation [17] | Bacterial Biotransformation [18] | Bacterial Biotransformation [19] | Bacterial Biotransformation [20] |
| --- | --- | --- | --- | --- | --- | --- | --- | --- | --- | --- | --- | --- | --- | --- | --- | --- | --- | --- | --- | --- |
| CCN(CC)C(=O)C1(c2ccccc2)CC1CN (centres undefined) | Compound NOT metabolized | Compound NOT metabolized | Compound NOT metabolized | Compound NOT metabolized | Compound NOT metabolized | Compound NOT metabolized | Compound NOT metabolized | Compound NOT metabolized | Compound NOT metabolized | Compound NOT metabolized | Compound NOT metabolized | Compound NOT metabolized | Compound NOT metabolized | Compound NOT metabolized | Compound NOT metabolized | Compound NOT metabolized | Compound NOT metabolized | Compound NOT metabolized | Compound NOT metabolized | Compound NOT metabolized |
| O=C1CN2Cc3c(ccc(Cl)c3Cl)N=C2N1 [ANAGRELIDE] | Compound metabolized | Compound metabolized | Compound NOT metabolized | Compound metabolized | Compound NOT metabolized | Compound NOT metabolized | Compound metabolized | Compound metabolized | Compound NOT metabolized | Compound metabolized | Compound metabolized | Compound NOT metabolized | Compound NOT metabolized | Compound NOT metabolized | Compound NOT metabolized | Compound NOT metabolized | Compound metabolized | Compound NOT metabolized | Compound NOT metabolized | Compound NOT metabolized |
| COc1cc(C(=O)NCc2ccc(OCCN(C)C)cc2)cc(OC)c1OC [TRIMETHOBENZAMIDE] | Compound NOT metabolized | Compound NOT metabolized | Compound NOT metabolized | Compound NOT metabolized | Compound NOT metabolized | Compound NOT metabolized | Compound NOT metabolized | – | Compound NOT metabolized | Compound NOT metabolized | Compound NOT metabolized | Compound NOT metabolized | Compound NOT metabolized | Compound NOT metabolized | Compound NOT metabolized | Compound NOT metabolized | Compound NOT metabolized | Compound NOT metabolized | Compound NOT metabolized | Compound NOT metabolized |

Continued, values first:

| Bacterial Biotransformation [1] | Bacterial Biotransformation [2] | Bacterial Biotransformation [3] | Bacterial Biotransformation [4] | Bacterial Biotransformation [5] | Bacterial Biotransformation [6] | Bacterial Biotransformation [7] | Bacterial Biotransformation [8] | Bacterial Biotransformation [9] | Bacterial Biotransformation [10] | Bacterial Biotransformation [11] | Bacterial Biotransformation [12] | Bacterial Biotransformation [13] | Bacterial Biotransformation [14] | Bacterial Biotransformation [15] | Bacterial Biotransformation [16] | Bacterial Biotransformation [17] | Bacterial Biotransformation [18] | Bacterial Biotransformation [19] | Bacterial Biotransformation [20] | SMILES |
| --- | --- | --- | --- | --- | --- | --- | --- | --- | --- | --- | --- | --- | --- | --- | --- | --- | --- | --- | --- | --- |
| Compound metabolized | Compound NOT metabolized | Compound NOT metabolized | Compound metabolized | Compound metabolized | Compound NOT metabolized | Compound NOT metabolized | Compound metabolized | Compound metabolized | Compound metabolized | Compound metabolized | Compound metabolized | Compound NOT metabolized | Compound metabolized | Compound NOT metabolized | Compound NOT metabolized | Compound metabolized | Compound NOT metabolized | Compound NOT metabolized | Compound NOT metabolized | Nc1nc(NC2CC2)c2ncn([C@H]3C=C[C@@H](CO)C3)c2n1.Nc1nc(NC2CC2)c2ncn([C@H]3C=C[C@@H](CO)C3)c2n1.O=S(=O)(O)O [ABACAVIR SULFATE] |
| Compound metabolized | Compound metabolized | Compound NOT metabolized | Compound NOT metabolized | Compound NOT metabolized | Compound NOT metabolized | Compound NOT metabolized | Compound metabolized | Compound NOT metabolized | Compound NOT metabolized | Compound NOT metabolized | Compound NOT metabolized | Compound NOT metabolized | Compound NOT metabolized | Compound NOT metabolized | Compound NOT metabolized | Compound NOT metabolized | Compound NOT metabolized | Compound NOT metabolized | Compound NOT metabolized | CCN(CC)CCNC(=O)c1ccc(NC(C)=O)cc1 [ACECAINIDE] |
